These results are taken from patent publication US9890166B2, “Imidazopyrrolidine derivatives and their use in the treatment of disease” (NOVARTIS AG, priority 2013, dated 2018).

The test system of test [1] is MV-4-11 cells. Briefly: Cell growth inhibition assay (CellTiter-Glo), MV-4-11.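 For all read-outs here: cellular ATP luminescence after 4 days, 3-fold dilution series from 10 µM top dose, vehicle (0.1% DMSO) set to 100%, cell-free medium set to −100%, day 0 corrected.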 The conditions noted are these: for GI50: Homo sapiens, MV4-11, read-out: MV-4-11 GI50; for MV-4-11 TGI: MV-4-11 cells, total growth inhibition, CellTiter-Glo.
Test [2] deals with CREBBP bromodomain (His-CREBBP(1081-1197)) (Homo sapiens (Human), UniProt Q92793). Put plainly: AlphaScreen in-vitro binding assay for CREBBP. Conditions: single determination or n ≧ 2 independent determinations, read-out: Biochemical IC50 CREBBP. The method, boiled down:
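Detection used nickel-chelate acceptor plus streptavidin donor AlphaScreen beads, 1 h room temperature. Percent inhibition fitted by non-linear regression to IC50.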
On the technique in general: In Alpha technology, singlet oxygen from a donor bead excites a nearby acceptor bead.

Test [3] concerns K-562 cells. Put plainly: Cell growth inhibition assay (CellTiter-Glo), K-562.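 For all read-outs here: cellular ATP measured by luminescence after 4 days of exposure, 3-fold dilution series from 10 µM, DMSO vehicle-treated cells define 100%, cell-free medium wells −100%.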 Conditions: for GI50: Homo sapiens, K562, read-out: K-562 GI50; for K-562 TGI: K-562 cells, total growth inhibition, CellTiter-Glo.
Test [4] relates to THP-1 cells. Briefly: Cell growth inhibition assay (CellTiter-Glo), THP-1.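 For all read-outs here: viability read as cellular ATP luminescence after 4 days, 3-fold dilution series from 10 µM, DMSO vehicle-treated cells taken as 100%, cell-free medium wells as −100%.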 Conditions: for GI50: Homo sapiens, THP-1, read-out: THP-1 GI50; for THP-1 TGI: THP-1 cells, total growth inhibition, CellTiter-Glo. Background: ATP-based viability assays read luminescence as a measure of living cells.
The target in test [5] is BRD3 (His-Brd3(20-477)) (Homo sapiens (Human), UniProt Q15059). Briefly: TR-FRET in-vitro binding assay for BRD3. The conditions noted are these: single determination or n ≧ 2 independent determinations, read-out: Biochemical IC50 BRD3. The gist of the method:
(§1)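 His-tagged BRD2, BRD3 and BRD4 fragments tested by TR-FRET at 8 compound concentrations, with DMSO stocks at 10 mM. Read on EnVision after 35 min incubation at 30° C.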
On the technique in general: In TR-FRET formats the signal depends on donor and acceptor labels being close together.

In test [6] the target is BRD2 (His-Brd2(60-472)) (Homo sapiens (Human), UniProt P25440). Briefly: TR-FRET in-vitro binding assay for BRD2. The conditions noted are these: single determination or n ≧ 2 independent determinations, read-out: Biochemical IC50 BRD2. On the procedure:
TR-FRET In-Vitro Binding Assays for BRD2, BRD3, and BRD4:
All assays were performed in 384 well microtiter plates. Each assay plate contained 8-point serial dilutions for 40 test compounds, plus 16 high- and 16 low controls. Liquid handling and incubation steps were done on an Innovadyne Nanodrop Express equipped with a robotic arm (Thermo CatX, Perkin Elmer/Caliper Twister II) and an incubator (Liconic STX40, Thermo Cytomat 2C450). The assay plates were prepared by addition of 50 nl per well of compound solution in 90% DMSO HummingBird nanodispenser (Zinsser Analytic). […] Reactions were incubated at 30° C. for 35 minutes. […] After 35 minutes incubation at 30° C., plates were measured in a Perkin Elmer EnVision multilabel reader.
Preparation of Compound Dilutions
Test compounds were dissolved in DMSO (10 mM) and transferred into 1.4 mL flat bottom or V-shaped Matrix tubes carrying a unique 2D matrix. The stock solutions were stored at […] if not used immediately. For the test procedure the vials were defrosted and identified by a scanner whereby a working sheet was generated that guided the subsequent working steps.
Compound dilutions were made in 96 well plates. This format enabled the assay of maximally 40 individual test compounds at 8 concentrations (single points) including 4 reference compounds, if desired (known BET inhibitors from the prior art, for this and other assays of the type disclosed herein). The dilution protocol included the production of “pre-dilution plates”, “master plates” and “assay plates”.
Pre-Dilution Plates: 96 polypropylene well plates were used as pre-dilution plates. A total of 4 pre-dilution plates were prepared including 10 test compounds each on the plate positions A1-A10, one standard compound at A11 and one DMSO control at A12. All dilution steps were done on a HamiltonSTAR robot.
These plates were used directly for the assay which was performed in a total volume of 13.55 μL.

Test [7] deals with BRD4 (His-Brd4(44-477)) (Homo sapiens (Human), UniProt O60885). Put plainly: TR-FRET in-vitro binding assay for BRD4. Conditions: single determination or n ≧ 2 independent determinations, read-out: Biochemical IC50 BRD4. The gist of the method: as §1

Usually GI50 stands for the concentration at which growth is held to half of that of the control. As usually defined, the IC50 is the midpoint of a concentration-inhibition curve.

Structures are written as SMILES.

Sequence of CREBBP bromodomain (His-CREBBP(1081-1197)) (Q92793 1081-1197): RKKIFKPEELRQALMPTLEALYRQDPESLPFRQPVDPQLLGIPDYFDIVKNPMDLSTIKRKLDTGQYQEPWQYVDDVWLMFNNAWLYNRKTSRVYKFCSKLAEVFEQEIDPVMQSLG
Sequence of BRD3 (His-Brd3(20-477)) (Q15059 20-477): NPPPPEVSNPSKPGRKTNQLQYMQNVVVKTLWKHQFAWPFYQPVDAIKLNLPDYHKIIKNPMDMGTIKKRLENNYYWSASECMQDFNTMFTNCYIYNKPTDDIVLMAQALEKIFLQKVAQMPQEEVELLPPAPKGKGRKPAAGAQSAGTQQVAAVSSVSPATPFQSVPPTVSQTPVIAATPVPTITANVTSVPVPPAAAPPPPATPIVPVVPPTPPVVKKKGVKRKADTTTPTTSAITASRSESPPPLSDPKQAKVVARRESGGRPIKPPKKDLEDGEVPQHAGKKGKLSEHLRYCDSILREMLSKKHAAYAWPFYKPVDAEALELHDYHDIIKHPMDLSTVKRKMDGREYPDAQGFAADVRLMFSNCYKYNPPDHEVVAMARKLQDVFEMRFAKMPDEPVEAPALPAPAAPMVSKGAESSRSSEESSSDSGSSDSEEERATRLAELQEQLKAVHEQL
Sequence of BRD2 (His-Brd2(60-472)) (P25440 60-472): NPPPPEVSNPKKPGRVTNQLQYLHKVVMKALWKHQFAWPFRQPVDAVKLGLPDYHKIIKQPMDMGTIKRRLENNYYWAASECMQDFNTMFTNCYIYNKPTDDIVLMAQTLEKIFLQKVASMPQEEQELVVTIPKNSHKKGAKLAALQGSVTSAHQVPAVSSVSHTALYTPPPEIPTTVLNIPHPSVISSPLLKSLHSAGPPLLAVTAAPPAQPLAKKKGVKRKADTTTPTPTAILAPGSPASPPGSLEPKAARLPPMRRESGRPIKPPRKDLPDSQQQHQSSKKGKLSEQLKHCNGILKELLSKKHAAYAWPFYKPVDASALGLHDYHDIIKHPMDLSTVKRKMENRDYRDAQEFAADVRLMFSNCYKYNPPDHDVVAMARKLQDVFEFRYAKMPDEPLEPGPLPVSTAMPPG

On to `COc1ncccc1-c1nc2c(n1C(C)C)C(c1ccc(Cl)cc1)N(c1cc(C)c3nnc(C(F)F)n3c1)C2=O` (stereo not shown) [Example 132, 6-(4-chlorophenyl)-5-(3-(difluoromethyl)-8-methyl-[1,2,4]triazolo[4,3-a]pyridin-6-yl)-1-isopropyl-2-(2-methoxypyridin-3-yl)-5,6-dihydropyrrolo[3,4-d]imidazol-4(1H)-one], for which the GI50 in test [1] came to 9.44 nM; in test [3] it was 51.8 nM; in test [4] it was 12.6 nM. Besides, the “MV-4-11 TGI” value in test [1] was 18.9 nM. Besides, the IC50 was 27500 nM in test [2], 12 nM in test [5], 19 nM in test [6] and below 11 nM in test [7]. The “K-562 TGI” value in test [3] is above 10000 nM. In addition, the “THP-1 TGI” value in test [4] amounted to 33.15 nM.

In the case of `COc1ncccc1-c1nc2c([nH]1)[C@@H](c1ccc(Cl)cc1)N(c1cc(C)c(=O)n(C)c1)C2=O` [Example 156, (R)-6-(4-chlorophenyl)-5-(1,5-dimethyl-6-oxo-1,6-dihydropyridin-3-yl)-2-(2-methoxypyridin-3-yl)-5,6-dihydropyrrolo[3,4-d]imidazol-4(1H)-one], the GI50 in test [1] stood at 25.4 nM; in test [3], 122 nM; in test [4] it was 43.4 nM. Moreover, the “MV-4-11 TGI” value in test [1] stood at 51.35 nM. In addition, the IC50 was determined as 260 nM in test [2], 29.5 nM in test [5], 32 nM in test [6] and 25 nM in test [7]. Also, the “K-562 TGI” value in test [3] is above 10000 nM. In addition, the “THP-1 TGI” value in test [4] amounted to 99 nM.

On to `Cc1cc(N2C(=O)c3nc(C4=CCOCC4)n(C(C)C)c3[C@H]2c2ccc(Cl)cc2)cn2c(C)nnc12` [Example 84, (R)-6-(4-chlorophenyl)-2-(3,6-dihydro-2H-pyran-4-yl)-5-(3,8-dimethyl-[1,2,4]triazolo[4,3-a]pyridin-6-yl)-1-isopropyl-5,6-dihydropyrrolo[3,4-d]imidazol-4(1H)-one], for which the GI50 in test [1] turned out to be 14.6 nM; in test [3] it was 73.2 nM; in test [4] it was 44 nM. Besides, the “MV-4-11 TGI” value in test [1] worked out at 29.4 nM. Further, the IC50 worked out at 3500 nM in test [2], 24 nM in test [5], 36 nM in test [6] and 18 nM in test [7]. The “K-562 TGI” value in test [3] was above 10000 nM. Moreover, the “THP-1 TGI” value in test [4] stood at 99.8 nM.

In the case of `Cc1cc(N2C(=O)c3nc(C4CCOCC4)n(C(C)C)c3[C@H]2c2ccc(Cl)cc2)cn2c(C)nnc12` [Example 87, (R)-6-(4-chlorophenyl)-5-(3,8-dimethyl-[1,2,4]triazolo[4,3-a]pyridin-6-yl)-1-isopropyl-2-(tetrahydro-2H-pyran-4-yl)-5,6-dihydropyrrolo[3,4-d]imidazol-4(1H)-one], the GI50 in test [1] worked out at 8.54 nM; in test [3] it was 166 nM; in test [4], 27.6 nM. The “MV-4-11 TGI” value in test [1] turned out to be 14.45 nM. Besides, the IC50 in test [2] was found to be 1800 nM; in test [5], 14 nM; in test [6] it was 25 nM; in test [7], 14 nM. Also, the “K-562 TGI” value in test [3] was above 10000 nM. In addition, in test [4], the “THP-1 TGI” value was found to be 79.2 nM.

For the compound `COc1ncccc1-c1nc2c([nH]1)C(c1ccc(Cl)cc1)N(c1cc(C)c3nnn(C)c3c1)C2=O` (stereo not shown) [Example 133, 6-(4-chlorophenyl)-5-(3,7-dimethyl-3H-benzo[d][1,2,3]triazol-5-yl)-2-(2-methoxypyridin-3-yl)-5,6-dihydropyrrolo[3,4-d]imidazol-4(1H)-one], the GI50 in test [1] is 35.1 nM; in test [3], 142 nM; in test [4], 65.6 nM. Also, in test [1], the “MV-4-11 TGI” value was 60.8 nM. The IC50 came to 5400 nM in test [2], 19.5 nM in test [5], 35 nM in test [6] and 23 nM in test [7]. In test [3], the “K-562 TGI” value was above 10000 nM. For the same compound, the “THP-1 TGI” value in test [4] was 137.5 nM.

`COC(=O)N1CCC(c2nc3c(n2C(C)C)C(c2ccc(Cl)cc2)N(c2cc(C)c4nnc(C)n4c2)C3=O)CC1` (stereo not shown) [Example 76, methyl 4-(6-(4-chlorophenyl)-5-(3,8-dimethyl-[1,2,4]triazolo[4,3-a]pyridin-6-yl)-1-isopropyl-4-oxo-1,4,5,6-tetrahydropyrrolo[3,4-d]imidazol-2-yl)piperidine-1-carboxylate]: the GI50 in test [1] is 23.3 nM; in test [3], 314 nM; in test [4], 95.7 nM. In test [1], the “MV-4-11 TGI” value came to 38.8 nM. Also, the half-inhibitory concentration (IC50) in test [2] was 2050 nM; in test [5], 64 nM; in test [6], 97 nM; in test [7], 54 nM. Besides, the “K-562 TGI” value in test [3] was above 10000 nM. For the same compound, in test [4], the “THP-1 TGI” value worked out at 266 nM.

For the compound `Cc1cc(N2C(=O)c3nc(C4CC4)n(C(C)C)c3C2c2ccc(Cl)cc2)cn2c(C(F)F)nnc12` (stereo not shown) [Example 145, 6-(4-chlorophenyl)-2-cyclopropyl-5-(3-(difluoromethyl)-8-methyl-[1,2,4]triazolo[4,3-a]pyridin-6-yl)-1-isopropyl-5,6-dihydropyrrolo[3,4-d]imidazol-4(1H)-one], the GI50 amounted to 14 nM in test [1], 70.2 nM in test [3] and 22.2 nM in test [4]. Moreover, in test [1], the “MV-4-11 TGI” value was 26.95 nM. The IC50 is above 37000 nM in test [2], 29 nM in test [5], 54 nM in test [6] and 28 nM in test [7]. Further, the “K-562 TGI” value in test [3] is above 10000 nM. In addition, the “THP-1 TGI” value in test [4] was 47.6 nM.

Take `COc1cc(N2C(=O)c3nc(C4CCOCC4)n(C(C)C)c3[C@H]2c2ccc(Cl)cc2)cc2c1nnn2C` [Example 108]: the GI50 in test [1] stood at 20.7 nM; in test [3], 132 nM; in test [4] it was 47.4 nM. Besides, the “MV-4-11 TGI” value in test [1] came to 42.95 nM. Moreover, the IC50 in test [2] was 9750 nM; in test [5] it was 74 nM; in test [6] it was 180 nM; in test [7] it was 61 nM. Moreover, the “K-562 TGI” value in test [3] is above 10000 nM. The “THP-1 TGI” value in test [4] amounted to 113 nM.

With `Cc1cc(N2C(=O)c3nc(C4CCN(C)CC4)n(C(C)C)c3C2c2ccc(Cl)cc2)cn2c(C)nnc12` (stereo not shown) [Example 98, 6-(4-chlorophenyl)-5-(3,8-dimethyl-[1,2,4]triazolo[4,3-a]pyridin-6-yl)-1-isopropyl-2-(1-methylpiperidin-4-yl)-5,6-dihydropyrrolo[3,4-d]imidazol-4(1H)-one], the concentration for 50% growth inhibition (GI50) in test [1] was 126 nM; in test [3], 3630 nM; in test [4], 472 nM. In addition, the “MV-4-11 TGI” value in test [1] turned out to be 282 nM. Besides, the IC50 in test [2] was determined as 2900 nM; in test [5], 23 nM; in test [6], 28 nM; in test [7] it was 15 nM. The “K-562 TGI” value in test [3] is above 10000 nM. Further, the “THP-1 TGI” value in test [4] was determined as 2140 nM.

`Cc1cc(N2C(=O)c3nc(C4=CCNCC4)n(C(C)C)c3C2c2ccc(Cl)cc2)cn2c(C)nnc12` (stereo not shown) [Example 49, 6-(4-Chlorophenyl)-5-(3,8-dimethyl-[1,2,4]triazolo[4,3-a]pyridin-6-yl)-1-isopropyl-2-(1,2,3,6-tetrahydropyridin-4-yl)-5,6-dihydropyrrolo[3,4-d]imidazol-4(1H)-one]: the concentration for 50% growth inhibition (GI50) in test [1] came to 191 nM; in test [3] it was 2040 nM; in test [4] it was 989 nM. The “MV-4-11 TGI” value in test [1] came out at 320 nM. Moreover, the IC50 stood at 2200 nM in test [2], 42 nM in test [5], 56 nM in test [6] and 35 nM in test [7]. In addition, the “K-562 TGI” value in test [3] is above 10000 nM. Besides, in test [4], the “THP-1 TGI” value worked out at 1470 nM.
